Measurements as given in patent US7772271B2 (priority 2004, dated 2010).
Where two headings read alike, the source gives them in different places.

Tests used:
PV IRES = assay: cells; assay type: cell-based, poliovirus
wild-type poliovirus = assay type: cell-based

Row | Compound | IC50 (PV IRES; Enterovirus C, HEK-293T, 20 h, read-out: WTPV mono luc IC50 (μM)) [µM] | WT-PV CPE (1 μM)* (wild-type poliovirus; 1 μM compound, Hela cells infected with wild-type poliovirus at MOI 0.1, treated for one day, CPE score) | WT-PV CPE (10 μM)* (wild-type poliovirus; 10 μM compound, Hela cells infected with wild-type poliovirus at MOI 0.1, treated for one day, CPE score) | WT-PV CPE (100 μM)* (wild-type poliovirus; 100 μM compound, Hela cells infected with wild-type poliovirus at MOI 0.1, treated for one day, CPE score) | IC50 (PV IRES; read-out: WTPV mono luc IC50) [µM] | WT-PV CPE (1 μM)* (wild-type poliovirus) | WT-PV CPE (10 μM)* (wild-type poliovirus) | WT-PV CPE (100 μM)* (wild-type poliovirus)
1 | CCOc1ccc2c(C#N)cn(CC)c2c1 [compound 9, 6-ethoxy-1-ethyl-1H-indole-3-carbonitrile] | > 100 | 2 | 2 | 3 | – | – | – | –
2 | CCn1c(-c2ccc(OC)cc2)c(C#N)c2ccc(OC)cc21 [compound 19] | – | – | – | – | 15 | 1 | 2 | 3
3 | COc1ccc(-n2cc(C#N)c3ccc(OC)cc32)cc1 [compound 4] | – | – | – | – | 0.8 | 1 | 2 | 3
4 | COc1ccc2c(C#N)c(C)n(-c3ccc4c(c3)OCO4)c2c1 [compound 24] | – | – | – | – | 1.5 | 2 | 2 | 3
